Each structure is given as a SMILES string. Where two headings read alike, the source gives them in different places.

Common to all, as to type: cell-based
The nature of experiment [1]: Inhibition of RPMI-8226 cell proliferation (CellTiter luminescent viability). The conditions noted are these: Homo sapiens, read-out: Inhibition Rate at 10 nM (%).
Experiment [2] has as its system Human B-Cell Lymphoma Cells (RPMI-8226). Described as above. Particulars: RPMI-8226, 500 nM, read-out: Inhibition Rate at 500 nM (%).
For experiment [3], the system named is Human lung cancer cell line (H292). The experiment is described as follows: Inhibition of H292 cell proliferation (CellTiter luminescent viability). The conditions noted are these: NCI-H292, Table IM1, CDK9 inhibitor-based, 96 hours; for inhibition at 0.01 µM: H292, 10 nM, read-out: Inhibition Rate at 10 nM (%); for inhibition at 0.5 µM: H292, 500 nM, read-out: Inhibition Rate at 500 nM (%). Here is the method:
The tumor cells used herein were cultured in a cell culture medium listed in table 3 at 37 °C in an incubator with 5% CO2. Prior to experimentation, all cell lines used were correctly identified by STR profiling, and tested negative for mycoplasma contamination using a mycoplasma detection kit through routine screenings.
The IC50 values of the compounds of the present disclosure (including the compounds in Table 1, Table 2, and Examples 1-468) were determined using the CellTiter-Meiluncell Luminescent Cell Viability Assay Kit from Dalian Meilun Biotech Co., Ltd. The detailed procedure is as follows: Tumor cells were seeded in 96-well cell culture plates at the densities specified in Table 4. On the following day, the test compounds of the present disclosure were subjected to serial dilution. The dilution can be performed according to one of the following two methods: • (1) The first dilution method: The test compounds of the present disclosure (including the compounds in Table 1, Table 2, and Examples 1-468) were subjected to 5-fold serial dilutions starting from a highest concentration of 2000 μM, resulting in a total of 9 concentrations from high to low (2000, 400, 80, 16, 3.2, 0.64, 0.128, 0.0256, 0.00512 μM). Subsequently, 0.5 μL of the test compound dilution was transferred into the 96-well plate containing the cells, with each well containing 100 μL of cell culture medium. […] Into the 96-well plate, the diluted test compounds and corresponding detection reagents were added, resulting in final test compound concentrations of 500 nM and 10 nM, respectively. The experimental procedure is described below using the diluted 2 μM test compound as an example.
0.5 μL of the aforementioned diluted compound of the present disclosure (including the compounds in Table 1, Table 2, and Examples 1-468) was added to the seeded cells in 100 μL of medium, yielding a final test compound concentration of 10 nM. After the cells were treated with the compounds of the present disclosure for a specified period, the cell viability assay reagent was added to the culture medium according to the kit's instructions to determine cell viability. […] All controls were treated using the same procedure as the compounds of the present disclosure. The growth inhibition curves for the compounds of the present disclosure were plotted using Prism GraphPad software, and the IC50 values were calculated therefrom.

Experiment [4] deals with Human Multiple myeloma cell line (MM.1S). The experiment is described as follows: Inhibition of MM.1S cell proliferation (CellTiter luminescent viability). Particulars: Homo sapiens, MM1.S, Table IA5, IRAK4 inhibitor-based, 96 hours. In short, it runs like this: (§1)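 IC50 is fitted from luminescent viability (CellTiter-Meiluncell) curves. Nine-point, 5-fold dilution series (top stock 2000 μM) are added at 0.5 μL per 100 μL medium to cells plated the day before, with growth at 37 °C and 5% CO2.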

For experiment [5], the system named is Human Acute T Lymphoblastic Leukemia Cells (Molt-4). Briefly: Inhibition of Molt-4 cell proliferation (CellTiter luminescent viability). Particulars: Homo sapiens, MOLT-4, 96 h, Table IA2, IRAK4 inhibitor-based, 96 hours.
For experiment [6], the system named is Human myeloid monocytic leukemia cell line (MV-4-11). Briefly: Inhibition of MV-4-11 cell proliferation (CellTiter luminescent viability). The conditions noted are these: Homo sapiens, MV4-11, Table IA3, IRAK4 inhibitor-based, 96 hours. In short, it runs like this: as §1
Another experiment deals with T1, IRAK4 (Homo sapiens, UniProt Q9NWZ3).
T1 construct: expression of target proteins in cells; endogenous in cells
T1 sequence (Q9NWZ3 1-460): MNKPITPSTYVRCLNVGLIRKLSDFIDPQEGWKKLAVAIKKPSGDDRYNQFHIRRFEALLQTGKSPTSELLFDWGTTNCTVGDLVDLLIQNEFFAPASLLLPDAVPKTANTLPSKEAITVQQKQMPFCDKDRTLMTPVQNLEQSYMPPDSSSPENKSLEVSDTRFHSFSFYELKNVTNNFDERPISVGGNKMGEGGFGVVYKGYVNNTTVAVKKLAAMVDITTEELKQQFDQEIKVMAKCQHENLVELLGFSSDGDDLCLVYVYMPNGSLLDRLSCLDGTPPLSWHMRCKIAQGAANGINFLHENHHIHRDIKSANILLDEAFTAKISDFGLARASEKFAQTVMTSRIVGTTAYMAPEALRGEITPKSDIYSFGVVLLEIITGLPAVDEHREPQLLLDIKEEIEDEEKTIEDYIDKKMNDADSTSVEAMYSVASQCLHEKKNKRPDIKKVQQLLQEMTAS
The experiment is described as follows: Western blot degradation of IRAK4. Particulars: hPBMC Cell; 24 hours. In short, it runs like this:
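Compound-treated cells harvested; lysates denatured 5 min at 95 °C, run on SDS-PAGE, blotted to NC membrane, blocked 1 h RT, probed with antibodies. Densitometry vs DMSO → DC50; target normalised to internal control → % remaining, degradation = 1 − remaining.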
(In general: Immunoblotting shows a protein as a band on a membrane.)

By inhibition is commonly meant the relative decrease from the control value, in per cent. For the molecule `O=C(NC1CCNCC1)c1[nH]ncc1NC(=O)c1c(Cl)cccc1Cl` [AT7519, reference compound], the inhibition at 0.01 µM was 0 to 5% in experiment [1] (RPMI-8226, 10 nM) and -5 to 0% in experiment [3]. Moreover, the results for the inhibition at 0.5 µM in experiment [2] and in experiment [3] were -20 to -15% and 5 to 10%, respectively.
Take `N#CC1(CNc2nc(-c3cc(NC4CCN(CC5CCN(c6ccc7c(c6)C(=O)N(N6CCC(=O)NC6=O)C7=O)CC5)CC4)ncc3Cl)cs2)CCOCC1` [GT-04719, 4-(((4-(5-chloro-2-((1-((1-(2-(2,4-dioxotetrahydropyrimidin-1(2H)-yl)-1,3-dioxoisoindolin-5-yl)piperidin-4-yl)methyl)piperidin-4-yl)amino)pyridin-4-yl)thiazol-2-yl)amino)methyl)tetrahydro-2H-pyran-4-carbonitrile]: the inhibition at 0.01 µM in experiment [1] (RPMI-8226, 10 nM) fell in the range of 10 to 20%; in experiment [3], 5 to 10%. Moreover, the inhibition at 0.5 µM fell in the range of 20 to 30% in experiment [2] and 15 to 20% in experiment [3].
Take `O=C1CCN(N2Cc3cc(CN4CCN(c5ccc(-n6cc(NC(=O)c7coc(-c8ccnc(NCC(F)(F)F)c8)n7)c(C(F)F)n6)cc5)CC4)ccc3C2=O)C(=O)N1` [GT-05318, N-(3-(difluoromethyl)-1-(4-(4-((2-(2,4-dioxotetrahydropyrimidin-1(2H)-yl)-1-oxoisoindolin-5-yl)methyl)piperazin-1-yl)phenyl)-1H-pyrazol-4-yl)-2-(2-((2,2,2-trifluoroethyl)amino)pyridin-4-yl) oxazole-4-carboxamide]: the inhibition at 0.01 µM in experiment [4] (10 nM, read-out: Inhibition Rate at 10 nM (%)) lay in the range of 10 to 15%; in experiment [5] (Molt-4, 10 nM, read-out: Inhibition Rate at 10 nM (%)), 3 to 7%; in experiment [6] (MV-4-11, 10 nM, read-out: Inhibition Rate at 10 nM (%)) it was 80 to 100%; in experiment [1] (Table IA4, IRAK4 inhibitor-based, RPMI-8226, 10 nM, 96 hours) it was 20 to 25%. The inhibition at 0.5 µM in experiment [4] (500 nM, read-out: Inhibition Rate at 500 nM (%)) lay within 60 to 80%; in experiment [5] (Molt-4, 500 nM, read-out: Inhibition Rate at 500 nM (%)), 40 to 60%; in experiment [6] (MV-4-11, 500 nM, read-out: Inhibition Rate at 500 nM (%)), 100 to 110%; in experiment [2] (Table IA4, IRAK4 inhibitor-based, 96 hours), 60 to 80%. In addition, the “Degradation of substrate protein IRAK4 (substrate protein remaining %)” value on IRAK4 is “A (0%≤substrate protein remaining %≤80%)”.
For the molecule `Cn1ncc(-c2nc(NC3CCN(Cc4ccc5c(c4)CN(N4CCC(=O)NC4=O)C5=O)CC3)ncc2Cl)c1CC1CC1` [GT-08212, 1-(5-((4-((5-chloro-4-(5-(cyclopropylmethyl)-1-methyl-1H-pyrazol-4-yl)pyrimidin-2-yl)amino)piperidin-1-yl)methyl)-1-oxoisoindolin-2-yl)dihydropyrimidine-2,4 (1H,3H)-dione], the inhibition at 0.01 µM fell in the range of 20 to 30% in experiment [1] (RPMI-8226, 10 nM) and 20 to 30% in experiment [3]. Besides, the inhibition at 0.5 µM fell in the range of 5 to 10% in experiment [2] and 30 to 40% in experiment [3].
Turning to `N#CC1(CNc2cccc(-c3cc(NC4CCN(Cc5ccc6c(c5)C(=O)N(N5CCC(=O)NC5=O)C6=O)CC4)ncc3Cl)n2)CCOCC1` [GT-08215, 4-(((5′-chloro-2′-((1-((2-(2,4-dioxotetrahydropyrimidin-1(2H)-yl)-1,3-dioxoisoindolin-5-yl)methyl)piperidin-4-yl)amino)-[2,4′-bipyridin]-6-yl)amino)methyl)tetrahydro-2H-pyran-4-carbonitrile], the inhibition at 0.01 µM in experiment [1] (RPMI-8226, 10 nM) was 20 to 30%; in experiment [3], 20 to 30%. Moreover, the inhibition at 0.5 µM in experiment [2] and in experiment [3] was 20 to 30% throughout.
Regarding `O=C1CCN(N2Cc3cc(CN4CCN(c5ccc(CC(=O)Nc6cc(C7CCC7)[nH]n6)cc5)CC4)ccc3C2=O)C(=O)N1` [GT-08229, N-(5-cyclobutyl-1H-pyrazol-3-yl)-2-(4-(4-((2-(2,4-dioxotetrahydropyrimidin-1(2H)-yl)-1-oxoisoindolin-5-yl)methyl)piperazin-1-yl)phenyl)acetamide], the inhibition at 0.01 µM was in the range of 10 to 20% in experiment [1] (RPMI-8226, 10 nM) and 20 to 30% in experiment [3]. In addition, the inhibition at 0.5 µM in experiment [2] was in the range of 10 to 20%; in experiment [3], 30 to 40%.
`Cn1ncc(-c2nc(NC3CCN(CC4CCN(c5cccc6c5C(=O)N(N5CCC(=O)NC5=O)C6=O)CC4)CC3)ncc2Cl)c1CC1CC1` [GT-08347, 4-(4-((4-((5-chloro-4-(5-(cyclopropylmethyl)-1-methyl-1H-pyrazol-4-yl)pyrimidin-2-yl)amino)piperidin-1-yl)methyl)piperidin-1-yl)-2-(2,4-dioxotetrahydropyrimidin-1(2H)-yl)isoindoline-1,3-dione]: the inhibition at 0.01 µM in experiment [1] (RPMI-8226, 10 nM) fell in the range of 20 to 30%; in experiment [3] it was 5 to 10%. For the same molecule, the figures for the inhibition at 0.5 µM in experiment [2] and in experiment [3] were 10 to 20% and 20 to 30%, respectively.
In the case of `O=C1CCN(N2C(=O)c3ccc(N4CCC(CN5CCN(c6ccc(CC(=O)Nc7cc(C8CCC8)[nH]n7)cc6)CC5)CC4)cc3C2=O)C(=O)N1` [GT-08350, N-(5-cyclobutyl-1H-pyrazol-3-yl)-2-(4-(4-((1-(2-(2,4-dioxotetrahydropyrimidin-1(2H)-yl)-1,3-dioxoisoindolin-5-yl)piperidin-4-yl)methyl)piperazin-1-yl)phenyl)acetamide], the inhibition at 0.01 µM was 10 to 20% in experiment [1] (RPMI-8226, 10 nM) and 40 to 50% in experiment [3]. In addition, the values for the inhibition at 0.5 µM in experiment [2] and in experiment [3] were 20 to 30% and 40 to 50%, respectively.

Source of the values: US20260364184A1, “COMPOUND BASED ON OXOISOINDOLINYL-SUBSTITUTED TETRAHYDROPYRIMIDINE-DIONE AND USE THEREOF” (GLUETACS THERAPEUTICS (SHANGHAI) CO., LTD., priority 2023, published 2026).
